The test system of data set [1] is Herpes simplex type 1 (HSV-1) strain E-377. The data set can be described thus: CPE-inhibition assay, HSV-1 strain E-377 in Vero cells. In kind it is cell-based, Herpes simplex virus type 1. To be noted: HSV-1 (E-377), minimum cytotoxic concentration / ID50. As to the method: (§1) The challenge viruses were propagated and assayed in cells that were pregrown as monolayer cultures in plastic tissue culture flasks and 96-well plates, using cell culture media appropriate for the host cell cultures. The following viruses and host cell cultures were employed:
(§2) green monkey kidney (Vero)
(§3) On the day of use, a weighed sample of each compound to be evaluated was dissolved and diluted in serial 10^0.5 dilutions in the culture medium appropriate for each virus-host cell system.
Mammalian cells were pregrown as monolayers in wells of COSTAR 96-well tissue culture plates using suitable cell culture media. Stock viruses were pretitered according to the method of Reed and Muench (Amer. J. Hyg. 27:493-497, 1938) and diluted in cell culture medium to yield 32 CCID50 (cell culture infectious dose, 50%) units per 0.1 ml. Antiviral assays were designed to test seven concentrations of each compound, from cytotoxic to noncytotoxic levels, in triplicate against each of the challenge viruses in microtiter plate wells containing suitable cell monolayers. To each of the replicate cell cultures were added 0.1 ml of the test drug solution and 0.1 ml of virus suspension. Cell controls containing medium alone, virus controls containing medium and virus, and drug cytotoxicity controls containing medium and each drug concentration were run simultaneously with the test samples assayed in each experiment. […]
(§4) Antiviral activity was determined by calculating the degree of inhibition of virus-induced CPE in drug-treated, virus-infected cell cultures by means of a virus rating (VR). The VR is a standard weighted measurement of antiviral activity taking into account both the degree of CPE inhibition and drug cytotoxicity, and is determined by a modification of the method of Ehrlich et al. (Ann. N.Y. Acad. Sci. 130: 5-16, 1965) as described below. […]
(§5) The VR was calculated as 0.1 of the sum of the numerical differences between the recorded CPE grade of each test well and that of the corresponding virus control in the culture plate. […]

Data set [2] has as its system Herpes simplex type 2 (HSV-2) strain MS. Nature of the data set: CPE-inhibition assay, HSV-2 strain MS in Vero cells. In kind it is cell-based, Herpes simplex virus type 2. As to conditions: HSV-2 (MS), minimum cytotoxic concentration / ID50. As to the method: as §1, §2, §3
Mammalian cells were pregrown as monolayers in wells of COSTAR 96-well tissue culture plates using suitable cell culture media. […]
as §4, §5

The test system of data set [3] is Human Cytomegalovirus (HCMV) strain AD169. The data set can be described thus: Virus yield reduction assay, HCMV in MRC5 cells. In kind it is cell-based. As to the method:
Human diploid embryonic lung (MRC5) cells were grown in 35 mm wells of 6-well tissue culture plates. Subconfluent cell monolayers were rinsed with phosphate-buffered saline (PBS) and were exposed to 0.5 ml/well of HCMV (strain AD169) suspension for 1.5 hours at 37° C. The virus suspension was diluted in MEM+2% fetal bovine serum (FBS) to yield a multipicity of infection (MOI) of approximately 0.1 plaque forming units (PFU)/cell. Following the virus adsorption period, the inocula were removed and infected cell layers were rinsed with PBS. Aliquiots (2.0 ml) of each test drug concentration (dissolved in MEM supplemented with 2% FBS) were dispensed into triplicate cell cultures: two virus-infected cultures and one uninfected cytotoxicity control culture (exposed to medium without virus for 1.5 hours). Untreated virus-infected control cultutres and untreated, uninfected cell control cutures were fed with medium alone. The culture plates were incubated at 37° C. in a humidified atmosphere of 2% CO2 in air. All cell culture fluids were replaced with fresh drug and medium 48 hours postinfection (p.i.). On Day 6 p.i., the cell layers were examined microscopically for cytopathogenic effect (CPE) and drug cytotoxicity. The test and virus control cultures were then harvested by subjecting the cell layers to one cycle of freeze-thawing. The cellular material was scraped into the ambient medium and the contents from replicate cultures were pooled, dispensed into cryotubes and stored at -135° C. The harvested test and virus control samples were thawed and the infectious virus yield was determined by plaque assay in MRC5 cells grown in 12-well cluster plates. Inhibiton of HCMV replication by each test compound was determined by comparing the progeny virus yields in the drug-treated cultures with the progeny virus yeild in the untreated, virus-infected control cultures.

In data set [4] the test system is Vero cells. Nature of the data set: Cell viability (MTT) of uninfected test-compound control wells. To be noted: cell viability reduced by 25%. In kind it is cell-based, African green monkey. How it is done:
Vero cells were pregrown as monolayers in wells of COSTAR 96-well tisue culture plates using suitable cell culture media. Stock viruses were pretitered according to the method of Reed and Muench (Amer. J. Hyg. 27 493 (1938)) and diluted in cell culture medium to yield 32 CCID50 (cell culture infectious dose, 50%) units per 0.1 mL. Antiviral assays were designed to test six concentrations of each compound, from cytotoxic to noncytotoxic levels, in triplicate against each of the challenge viruses in microtiter plate wells containing cell monolayers. To each of the replicate cell cultures were added 0.1 mL of the test-compound solution and 0.1 mL of virus suspension. Two compounds were evaluated per plate. The following controls were included:
(3) Test-compound cytotoxicity controls containing uninfected, test-compound treated cells;
The covered plates were incubated at 37° C. in a humidified atmosphere containing 2% CO2. When cytopathogenic effect (CPE) in untreated virus control wells reached 100%, 20 μL of 3-(4,5-dimethyl-thiazol-2-yl)-2,5-diphenyl tetrazolium bromide (MTT) (dissolved in PBS at 5 mg/mL) was pipetted into each of the plate wells. The plates were incubated at 37° C. for six hours; then 40 μL of 30% SDS (in 0.02N HCl) was added to each well. After overnight incubation at 37° C. the blue color or the MTT formazan was measured spectrophotometrically at 570 nm. The optical density (OD) value of each culture is a function of the amount of formazan produced which is proportional to the number of viable cells. A computer program was utilized to calculate the percent (CPE) reciprocal of % CPE reduction) of the virus-infected wells and % cell viability of the uninfected test-compound control wells.
The IC50 value is the minimum test-compound concentration (μg/mL) that inhibited CPE by 50%, calculated by using a regression analysis program for semilog curve fitting. The TC25 value is the minimum test-compound concentration (μg/mL) that reduced cell viability by 25%.

In brackets after ≈: the same amount, converted by molar mass.

Take `Cc1cn([C@@H]2O[C@H](CO)[C@H]2CO)c(=O)[nH]c1=O` [Example 21, 1-([2'R,3'R,4'S]-3',4'-Bis(hydroxmethyl)-2'-oxetanyl)5-methyluracil]: the “TI (Therapeutic Index)” value in data set [1] was 1552; in data set [2], more than 7.2.

On to `Nc1ccn([C@@H]2O[C@H](CO)[C@H]2CO)c(=O)n1` [Example 22, 1-([2'R,3'R,4'S]-3',4'-Bis(hydroxmethyl)-2'-oxetanyl)cytosine], for which the “TI (Therapeutic Index)” value is reported as 13.1 in data set [1] and 9.7 in data set [2]. In addition, the HCMV yield in data set [3] (0.032 μg/ml) is given as 3.8 log10 PFU/ml; in data set [3] (0.1 μg/ml), 3.1 log10 PFU/ml; in data set [3] (0.32 μg/ml), 2.6 log10 PFU/ml; in data set [3] (1.0 μg/ml), 0.4 log10 PFU/ml; in data set [3] (3.2 μg/ml) it was less than 0.1 log10 PFU/ml; in data set [3] (10 μg/ml), less than 0.1 log10 PFU/ml.

Take `O=c1ccn([C@@H]2O[C@H](CO)[C@H]2CO)c(=O)[nH]1` [Example 23, 1-([2'R,3'R,4'S]-3',4'-Bis(hydroxmethyl)-2'-oxetanyl)uracil]: the “TI (Therapeutic Index)” value in data set [1] was found to be 1.0. Further, the HCMV yield is listed as 4.7 log10 PFU/ml in data set [3] (3.2 μg/ml); 4.5 log10 PFU/ml in data set [3] (10 μg/ml); 4.4 log10 PFU/ml in data set [3] (32 μg/ml); 4.0 log10 PFU/ml in data set [3] (100 μg/ml); 3.0 log10 PFU/ml in data set [3] (320 μg/ml).

`O=c1[nH]c(=O)n([C@@H]2O[C@H](CO)[C@H]2CO)cc1I` [Example 42, 1-([2'R, 3'R, 4'S]-3', 4'-Bis(hydroxmethyl)-2'-oxetanyl)-5-iodouracil]: the TC25 in data set [4] (HSV-1 (E-377) line) and in data set [4] (HSV-2 (MS) line) was more than 354 µg/mL throughout.

Turning to `O=c1[nH]c(=O)n([C@@H]2O[C@H](CO)[C@H]2CO)cc1Br` [Example 43, 1-([2'R, 3'R, 4'S]-3', 4'-Bis(hydroxmethyl)-2'-oxetanyl)-5-bromouracil], the TC25 is 18.4 µg/mL (≈ 59.9 µM) in data set [4] (HSV-1 (E-377) line) and more than 307 µg/mL in data set [4] (HSV-2 (MS) line).

For the compound `O=c1[nH]c(=O)n([C@@H]2O[C@H](CO)[C@H]2CO)cc1C=CBr` [Example 44, 1-([2'R, 3'R, 4'S]-3', 4'-Bis(hydroxmethyl)-2'-oxetanyl)-5-(2-bromo-1-vinyl)uracil], the TC25 in data set [4] (HSV-1 (E-377) line) amounted to 289 µg/mL (≈ 868 µM).

For the compound `O=c1[nH]c(=O)n([C@@H]2O[C@H](CO)[C@H]2CO)cc1C=CI` [Example 49, 1([2'R,3'R,4'S]-3',4'-n-Bis(hydroxmethyl)-2'-oxetanyl)-5-(2-iodo-1-vinyl)uracil], the TC25 in data set [4] (HSV-1 (E-377) line) is more than 380 µg/mL.

Regarding `O=c1[nH]c(=O)n([C@@H]2O[C@H](CO)[C@H]2CO)cc1C=CCl` [Example 50, 1-([2'R,3'R,4'S]-3',4'-Bis(hydroxymethyl)-2'-oxetanyl)-5-(2-chloro-1-vinyl)uracil], in data set [4] (HSV-1 (E-377) line), the TC25 was more than 289 µg/mL.

In turn, `C=Cc1cn([C@@H]2O[C@H](CO)[C@H]2CO)c(=O)[nH]c1=O` [Example 61, 1-([2'R, 3'R, 4'S]-3',4'-Bis(hydroxmethyl)-2'-oxetanyl)-5-vinyluracil] had a TC25 in data set [4] (HSV-2 (MS) line) not below 254 µg/mL.

The record behind these values is patent US5597824A, “Analogs of oxetanyl purines and pyrimidines” (Abbott Laboratories, priority 1992, dated 1997).
